One data set relates to ex vivo porcine brains. To be noted: contrast agent infusion, literature; cited from earlier work.
In another data set the test system is excised pig brains. The method, then:
The volume of solution that leaked into the ventricles was segmented into a separate mask (green).
In recent studies (see e.g. FIG. 62A-FIG. 62C) E. Y. Elenes et al., Journal of Engineering and Science in Medical Diagnostics and Therapy, 2020), the arborizing catheter, comprising six infusion ports, was compared to a reflux-preventing single-port catheter. Infusions of iohexol at a flow rate of 1 μL/min/microneedle were performed, using the arborizing catheter on one hemisphere and a single-port catheter on the contralateral hemisphere of excised pig brains. The volume dispersed (Va) of the contrast agent was quantified for each catheter using standard techniques (G. P. Mazzara, et al., International Journal of Radiation Oncology Biology Physics, 2004; and M. F. Dempsey, et al., American Journal of Neuroradiology, 2005).

On to `CC(=O)N(CC(O)CO)c1c(I)c(C(=O)NCC(O)CO)c(I)c(C(=O)NCC(O)CO)c1I` (centres unmarked) [iohexol], for which, in the data set on ex vivo porcine brains, the “voxels with a concentration between 10 and 15%” value is about 40%. In addition, in the data set with excised pig brains, the “Vd, arborizing catheter relative to single-port catheter” value was “approximately 6 times”.

These data come from patent publication US20260257039A1, “CONVECTION-ENHANCED THERMO-CHEMOTHERAPY CATHETER SYSTEM” (Board of Regents, The University of Texas System, priority 2022, published 2026).
